Experimental data reported in US11192914B2, “Alkyne containing nucleotide and nucleoside therapeutic compositions and uses related thereto” (Emory University, priority 2016, dated 2021).
Like-named read-outs stand apart in the source and are kept apart here.

Tests used:
DENV2 New Guinea C = assay: Anti-Dengue virus cytoprotection assay; format: cell-based, Dengue virus type 2
Description: Cell Preparation—BHK21 cells (Syrian golden hamster kidney cells, ATCC catalog #CCL-I 0), Vero cells (African green monkey kidney cells, ATCC catalog #CCL-81), or Huh-7 cells (human hepatocyte carcinoma) were passaged in DMEM supplemented with 10% FBS, 2 mM L-glutamine, 100 U/mL penicillin, and 100 μg/mL streptomycin in T-75 flasks prior to use in the antiviral assay. On the day preceding the assay, the cells were split 1:2 to assure they were in an exponential growth phase at the time of infection. Total cell and viability quantification was performed using a hemocytometer and Trypan Blue dye exclusion. Cell viability was greater than 95% for the cells to be utilized in the assay. The cells were resuspended at 3×10^3 ([…] for Vero cells and Huh-7 cells) cells per well in tissue culture medium and added to flat bottom microtiter plates in a volume of 100 μL. The plates were incubated at 37° C./5% CO2 overnight to allow for cell adherence.
Virus Preparation—The Dengue virus type 2 New Guinea C strain was obtained from ATCC (catalog #VR-1584) and was grown in LLC-MK2 (Rhesus monkey kidney cells; catalog #CCL-7.1) cells for the production of stock virus pools. An aliquot of virus pretitered in BHK21 cells was removed from the freezer (−80° C.) and allowed to thaw slowly to room temperature in a biological safety cabinet. Virus was resuspended and diluted into assay medium (DMEM supplemented with 2% heat-inactivated FBS, 2 mM L-glutamine, 100 U/mL penicillin, and 100 μg/mL streptomycin) such that the amount of virus added to each well in a volume of 100 μL was the amount determined to yield 85 to 95% cell killing at 6 days post-infection.
Plate Format—Each plate contains cell control wells (cells only), virus control wells (cells plus virus), triplicate drug toxicity wells per compound (cells plus drug only), as well as triplicate experimental wells (drug plus cells plus virus).
Efficacy and Toxicity XTT-Following incubation at 37° C. in a 5% CO2 incubator, the test plates were stained with the tetrazolium dye XTT (2,3-bis(2-methoxy-4-nitro-5-sulfophenyl)-5-[(phenylamino)carbonyl]-2H-tetrazolium hydroxide). XTT-tetrazolium was metabolized by the mitochondrial enzymes of metabolically active cells to a soluble formazan product, allowing rapid quantitative analysis of the inhibition of virus-induced cell killing by antiviral test substances. XTT solution was prepared daily as a stock of 1 mg/mL in RPMI 1640. Phenazine methosulfate (PMS) solution was prepared at 0.15 mg/mL in PBS and stored in the dark at −20° C. XTT/PMS stock was prepared immediately before use by adding 40 μL of PMS per ml of XTT solution. Fifty microliters of XTT/PMS was added to each well of the plate and the plate was reincubated for 4 hours at 37° C. Plates were sealed with adhesive plate sealers and shaken gently or inverted several times to mix the soluble formazan product and the plate was read spectrophotometrically at 450/650 nm with a Molecular Devices Vmax plate reader.
Data Analysis —Raw data was collected from the Softmax Pro 4.6 software and imported into a Microsoft Excel spreadsheet for analysis. The percent reduction in viral cytopathic effect compared to the untreated virus controls was calculated for each compound. The percent cell control value was calculated for each compound comparing the drug treated uninfected cells to the uninfected cells in medium alone.

HRV = assay: Antiviral assay HRV; format: cell-based; details: HeLa, read-out: HRV EC50
ZIKV [1] = assay: ZIKV infectious (cytoprotection, XTT) assay; format: cell-based; details: Zika virus, Huh-7, Cell Line Huh-7 (Example 92); read-out: ZIKV EC50
ZIKV [2] = assay: ZIKV infectious (cytoprotection, XTT) assay; format: cell-based, Zika virus; details: Zika virus, Vero, Cell Line Vero (Example 92); read-out: ZIKV EC50
Description: Vero cells were passaged in DMEM medium in T-75 flasks prior to use in the antiviral assay. On the day preceding the assay, the cells were split 1:2 to assure they were in exponential growth phase at the time of infection. The cells were resuspended at […] cells per well in tissue culture medium and added to flat bottom microtiter plates in a volume of […]. The plates were incubated at 37° C./5% CO2 overnight to allow for cell adherence. Separately, Zika virus was titrated in LLCMK2 cells to define the inoculum for use in the antiviral assay. Virus was diluted in DMEM medium such that the amount of virus added to each well in a volume of […] was the amount determined to achieve 85 to 95% cell killing at 5 days post-infection. Following incubation test plates were stained with XTT dye. XTT solution was prepared daily as a stock solution of 1 mg/mL in RPM11640. PMS solution was prepared at 0.15 mg/mL in PBS and stored in the dark at −20° C. XTT/PMS stock was prepared immediately before use by adding […] of PMS per mL of XTT solution. Fifty microliters of XTT/PMS was added to each well of the plate, and the plate was reincubated for 4 hours at 37° C. Plates were sealed with adhesive plate sealers ad shaken gently to mix the soluble formazan product, and the plate was read spectrophotometrically read 450/650 nm with a Molecular Devices Vmax plate reader. The raw data was collected from Softmax Pro and imported into a Microsoft Excel XLfit4 spreadsheet for analysis using four parameter curve fit calculations.

RSV = assay: Antiviral assay RSV; format: cell-based; details: human respiratory syncytial virus, Huh-7, read-out: RSV EC50
Description: Cell Preparation-HEp2 cells (human epithelial cells, ATCC catalog #CCL-23) were passaged in DMEM supplemented with 10% FBS, 2 mM L-glutamine, 100 U/mL penicillin, 100 μg/mL streptomycin 1 mM sodium pyruvate, and 0.1 mM NEAA, T-75 flasks prior to use in the antiviral assay. On the day preceding the assay, the cells were split 1:2 to assure they were in an exponential growth phase at the time of infection. Total cell and viability quantification was performed using a hemocytometer and Trypan Blue dye exclusion. Cell viability was greater than 95% for the cells to be utilized in the assay. The cells were resuspended at 1×10^4 cells per well in tissue culture medium and added to flat bottom microtiter plates in a volume of 100 μL. The plates were incubated at 37° C./5% CO2 overnight to allow for cell adherence. […] Virus was resuspended and diluted into assay medium (DMEM supplemented with 2% heat-inactivated FBS, 2 mM L-glutamine, 100 U/mL penicillin, 100 μg/mL streptomycin, 1 mM sodium pyruvate, and 0.1 mM NEAA) such that the amount of virus added to each well in a volume of 100 μL was the amount determined to yield 85 to 95% cell killing at 6 days post-infection. Efficacy and Toxicity XTT-Plates were stained and analyzed as previously described for the Dengue cytoprotection assay.

C#CC1(O)C(O)[C@@H](COP(=O)(OCOC(=O)C(C)(C)C)OCOC(=O)C(C)(C)C)O[C@H]1n1ccc(=O)[nH]c1=O (stereo partly shown) [EIDD-02290]
EC50 (DENV2 New Guinea C; DENV2, Huh-7, read-out: DENV2 EC50): 240 nM
EC50 (DENV2 New Guinea C; DENV2, Vero, read-out: DENV2 EC50): 7560 nM
EC50 (DENV2 New Guinea C; DENV2, read-out: DENV2 EC50): 7760 nM
EC50 (HRV): 50 nM
EC50 (ZIKV [1]): 310 nM
EC50 (ZIKV [2]): 1060 nM
EC50 (RSV): 90000 nM
